The target in series [1] is T1, E. coli DHFR (Escherichia coli, UniProt P0ABQ4). It is filed as biochemical. Particulars: for inhibition at 1 mM inhibitor concentration (in words): E. coli DHFR.
For series [2], the target named is T1, E. coli DHFR. Particulars: product inhibition; cited from earlier work.
The target in series [3] is T2, human DHFR (Homo sapiens, UniProt P00374).
T2 sequence (P00374 1-187): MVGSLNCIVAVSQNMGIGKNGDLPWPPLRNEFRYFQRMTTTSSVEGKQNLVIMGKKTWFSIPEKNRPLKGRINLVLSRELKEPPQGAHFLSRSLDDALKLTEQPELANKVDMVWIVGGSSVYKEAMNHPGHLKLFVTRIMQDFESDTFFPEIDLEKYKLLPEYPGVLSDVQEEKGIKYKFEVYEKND
Particulars: product inhibition; cited from earlier work.

Series [4] has as its target T2, human DHFR. It is filed as biochemical.
For series [5] the following is noted: previous study; cited from earlier work.
For the next series, the system named is cancer cells. To be noted: previous study; cited from earlier work.
The target in series [6] is T1, E. coli DHFR. Put plainly: Progress curve analysis, slow tight binding. It is filed as biochemical.
Series [7] has as its target T2, human DHFR. The series is described as follows: Progress curve analysis, slow tight binding, human DHFR. To be noted: time course of NADPH depletion. It is filed as biochemical.
The target in series [8] is T1, E. coli DHFR. The series is described as follows: Inhibition kinetics: substrate titration at fixed inhibitor concentrations. It is filed as biochemical.
The mark [9] stands for this setting: IC-50, human DHFR 12.4 nM, 60 μM NADPH, 50 μM H2F, 100 mM HEPES pH 7.3.

As a reminder, the IC50 is the concentration at which inhibition is half-maximal. Broadly, the Ki is a measure of affinity in units of concentration, obtained from inhibition or displacement. A low value points to tighter binding. For orientation: Kd means the constant that tells how readily two partners part at equilibrium. Higher therefore signals a looser complex. As a reminder, the kon is the rate constant with which the complex forms. The low end stands for slower complex formation, the high end for faster complex formation.

Each structure is given as a SMILES string. Read-outs that look alike come from different tables or passages of the source.

T1 sequence (P0ABQ4 whole entry): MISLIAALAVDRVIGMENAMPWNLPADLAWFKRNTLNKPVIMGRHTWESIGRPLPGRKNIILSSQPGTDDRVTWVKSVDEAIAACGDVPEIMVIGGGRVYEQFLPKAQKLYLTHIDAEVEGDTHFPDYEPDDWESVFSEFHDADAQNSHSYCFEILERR

Consider `Nc1ccc(-c2nc3nc(N)nc(N)c3nc2-c2ccc(N)cc2)cc1` [NSC61642, 6,7-bis (4-aminophenyl) pteridine-2,4-diamine, reference compound], for which, at E. coli DHFR [1], the “inhibition at 1 mM inhibitor concentration (in words)” value (from here on “inhibition”) is recorded as “unambiguous inhibition”.

`NC(=O)c1ccc[n+]([C@@H]2O[C@H](COP(=O)([O-])OP(=O)(O)OC[C@H]3O[C@@H](n4cnc5c(N)ncnc54)[C@H](OP(=O)(O)O)[C@@H]3O)[C@@H](O)[C@H]2O)c1` [NADP^+]: the IC50 at E. coli DHFR [2] was roughly 5000 µM; at human DHFR [3], roughly 620 µM.

Regarding `Nc1nc2[nH]cc(CCc3ccc(C(=O)N[C@@H](CCC(=O)O)C(=O)O)cc3)c2c(=O)[nH]1` [NSC698037, pemetrexed, reference compound], on E. coli DHFR [1], the “inhibition” value is “unambiguous inhibition”.

`O=C(Nc1ccc(Oc2ccc(NC(=O)Nc3ccc([N+](=O)[O-])cc3)cc2)cc1)Nc1ccc([N+](=O)[O-])cc1` [NNCPPU, 1-(4-nitrophenyl)-3-[4-[4-[(4-nitrophenyl)carbamoylamino]phenoxy]phenyl]urea]: at E. coli DHFR [1], 36.6 ± 1.1 µM corresponded to half-maximal inhibition (IC50), the Ki turned out to be 2.06 ± 0.378 µM and the “inhibition” value is recorded as “almost complete inhibition”. Moreover, the affinity on human DHFR [4], expressed as Ki, was 1.97 ± 0.329 µM. At human DHFR [4] (setting [9]), this molecule came in with an IC50 of 68.9 ± 1.36 µM. Besides, the solubility in water entry in “Solubility in water” is given as “sparsely soluble in water”. In series [5], the bactericidal activity entry was “didn't show”. Also, the “activity against cancer cells” value in the series with cancer cells is “didn't show”.

Regarding `Nc1ccc(NC(=O)c2ccc(C(=O)Nc3ccc(N)cc3)cc2)cc1` [NNBABD, N,N'-bis(4-aminophenyl)benzene-1,4-dicarboxamide], the IC50 on E. coli DHFR [1] came out at 176.5 ± 1.1 µM; on human DHFR [4] (setting [9]) it was 254.5 ± 1.79 µM. The Ki was determined as 10.9 ± 2.16 µM on E. coli DHFR [1] and 5.16 ± 1.41 µM on human DHFR [4]. At E. coli DHFR [1], the “inhibition” value is reported as “almost complete inhibition”. For the same molecule, the solubility in water entry in the series “Solubility in water” was “sparsely soluble in water”. Besides, in [5], the bactericidal activity entry was “didn't show”. Moreover, the “activity against cancer cells” value with cancer cells is listed as “didn't show”.

Take `Nc1nc(N)c2c(ccc3[nH]ccc32)n1` [PQD, 7H-Pyrrolo(3,2-f)quinazoline-1,3-diamine, reference compound]: the half-maximal inhibitory concentration (IC50) amounted to 0.106 ± 0.0012 µM against E. coli DHFR [1]; 3.09 ± 0.17 µM at human DHFR [4] (IC-50, human DHFR); 3.087 ± 0.0165 µM on human DHFR [4] (setting [9]). The Ki at E. coli DHFR [1] is 0.0042 ± 0.0005 µM; at human DHFR [4] it was 0.0934 ± 0.009 µM; on E. coli DHFR [8], 0.00318 ± 0.00051 µM. The “inhibition” value on E. coli DHFR [1] was “unambiguous inhibition”. Also, the “fold reduction in potency (IC-50) for human DHFR vs E. coli DHFR” value on human DHFR [4] (selectivity human/E. coli) was 30 fold. Besides, the Kd at E. coli DHFR [6] was 0.00448 ± 0.00063 µM. The kon on E. coli DHFR [6] was 350000 M⁻¹ s⁻¹. The “mode of inhibitor binding (time dependence, in words)” value on E. coli DHFR [6] (E. coli DHFR progress curves) was “classical tight-binding reversible inhibition”; on human DHFR [7], “didn't show any slow-onset of inhibition”. The molecule also came in with a koff on E. coli DHFR [6] (time-dependent inactivation, 50 μM H2F, 60 μM NADPH) of 0.094 ± 0.010 min^1. In addition, the αKi on E. coli DHFR [8] (uncompetitive inhibition, NADPH titrated) is on record as 72.17 ± 4.23 nM.

For the molecule `C#CCC(Cc1cnc2nc(N)nc(N)c2n1)c1ccc(C(=O)N[C@@H](CCC(=O)O)C(=O)O)cc1` (stereo partly drawn) [NSC754230, pralatrexate, reference compound], the “inhibition” value on E. coli DHFR [1] was “unambiguous inhibition”.

Take `C1=Cc2ccccc2Nc2ccccc21` [ISB, 2,2'-Iminostilbene]: the IC50 on E. coli DHFR [1] is 587.8 ± 1.2 µM; on human DHFR [4] (IC-50, human DHFR, table footnote to ND) it was greater than 2000 µM. This molecule also returned a Ki on E. coli DHFR [1] of 35.2 ± 5.36 µM. The solubility in water result in the series “Solubility in water” is recorded as “sparsely soluble in water”.

The record behind these values is paper PMC4445455 (The FEBS journal, 2015).
